Reference: US20230090255A1, “MAGL INHIBITOR, PREPARATION METHOD THEREFOR AND USE THEREOF” (LUNAN PHARMACEUTICAL GROUP CORPORATION, priority 2019, published 2023)

How the values were obtained:
[1] = test system: mice writhing caused by acetic acid; assay: Mice writhing caused by acetic acid; conditions: for Writhing times: 1 h before 0.7% acetic acid ip, within 20 min; for Latent time: time to first writhing; for Inhibition ratio: writhing inhibition
[2] = test system: ulcerative colitis mice; assay: Mice ulcerative colitis (DSS); format: in vivo, BALB/c mice; conditions: for Total times of hematochezia within the four periods / Colon length / IL-1 content: DSS mice; for Colon length: four periods; for IL-1 content: serum, ELISA
[3] = test system: irritable bowel syndrome rats; assay: Irritable bowel syndrome rats induced by early maternal separation; format: in vivo, SD rats; set-up: AWR scoring: scale not given here; conditions: for Colon 5-HT / Serum 5-HT / AWR scoring: IBS rats
Description: The newborn SD male rats were separated from the mother rat in lactation period for 3 h every day on the 2nd to the 21st day after the birth of the newborn SD rats, namely, the mother rat in lactation period was taken out of the cage at 8:30 a.m., and then the newborn rats were removed from the initial cage and put to another separate cage, then the cage was transferred to an adjacent room, then the newborn rats were returned to the initial cage 3 h later, namely, at 11:30 such that the newborn rats and the mother rat got together; the newborn rats were weaned on the 22nd day after birth and separated from the initial cage on the 30th day, grouped on the 60th day, and administered, 20 d in total.
Intragastric administration was performed within the administration period once a day with continuous administration for 20 d.
Test indicators: abdominal withdrawal reflex (AWR); test method: rats were fasted 18 h before the experiment and drank water freely, and narcotized with diethyl ether; then an air sac coated with paraffin oil was inserted into the rats’ colorectum for 4.0 cm, and a catheter outside the anus was fixed at the root of the rat tail with an adhesive tape, and connected with an injection syringe and a sphygmomanometer via three links. The rats were put to an organic glass inspection box (20 cmx12 cm×9 cm), after the rats were awake and fully adapted to the environment for 30 min, the experiment was started. 20, 40 and 60 mm Hg of pressure were respectively applied on the rats, and continuous expansion was performed for 20 s each time with a stimulus interval of 4 min; each pressure was performed for 3 times repeatedly for AWR scoring.
At the end of the experiment, the animals were dissected and weighed, and narcotized to take blood, then the content of 5-HT in serum was determined by high performance liquid chromatography. […] slightly with 0.5% sodium carboxymethylcellulose, and then sucked dry with a filter paper, and placed into a cryogenic tube, and preserved at -20° C. for further use, […] chromatography.

[4] = test system: mice with inflammatory pain; assay: Pain threshold of mice with inflammatory pain (complete Freund's adjuvant); format: in vivo, SD mice; conditions: for Pain threshold: complete Freund's adjuvant paw model
[5] = test system: mice pain response induced by hot plate; assay: Mice pain response induced by hot plate; format: in vivo, ICR mice; conditions: for Pain threshold: hot plate 55°C
In short: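 Female ICR mice (20±2 g) dosed intragastrically for 7 consecutive days. Latency to hind-paw licking on a 55±0.5° C hot plate measured at 30, 60, 90 and 120 min after the last dose, with a 60 s cap. Mice with baseline latency <5 s or >30 s, or jumping, excluded.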

O=C(Nc1cccc(Cl)c1)C1CCN(C(=O)c2cccc(O)c2)CC1 [MAGLZ-II-11]
latent time, in words ([1]; compared with the model group): extend | mice writhing times caused by acetic acid, in words ([1]; compared with the model group): significantly decrease | Writhing times ([1]; high dose 30 mg/kg ig): 13.6±13.1 | Latent time ([1]; high dose 30 mg/kg ig): 467.8 ± 175.6 s | Inhibition ratio ([1]; high dose 30 mg/kg ig): 65.4% | Writhing times ([1]; low dose 7.5 mg/kg ig): 23.4±11.7 | Latent time ([1]; low dose 7.5 mg/kg ig): 379.7 ± 129.3 s | Inhibition ratio ([1]; low dose 7.5 mg/kg ig): 40.5% | Writhing times ([1]; middle dose 15 mg/kg ig): 17.5±9.6 | Latent time ([1]; middle dose 15 mg/kg ig): 408.4 ± 128.2 s | Inhibition ratio ([1]; middle dose 15 mg/kg ig): 55.5% | Total times of hematochezia within the four periods ([2]; high dose 30 mg/kg ig): 24.80±5.43 | Colon length ([2]; high dose 30 mg/kg ig): 7.68±0.75 cm | IL-1 content ([2]; high dose 30 mg/kg ig): 33.83 ± 7.14 pg/mL | Total times of hematochezia within the four periods ([2]; low dose 7.5 mg/kg ig): 32.00±4.94 | Colon length ([2]; low dose 7.5 mg/kg ig): 6.88±0.89 cm | IL-1 content ([2]; low dose 7.5 mg/kg ig): 44.57 ± 10.32 pg/mL | Total times of hematochezia within the four periods ([2]; middle dose 15 mg/kg ig): 27.20±5.39 | Colon length ([2]; middle dose 15 mg/kg ig): 7.26±0.67 cm | IL-1 content ([2]; middle dose 15 mg/kg ig): 41.40 ± 9.50 pg/mL | IL-1 content, in words ([2]; compared with the model group): decrease | colon length, in words ([2]; compared with the model group): significantly increase | total times of hematochezia, in words ([2]; compared with the model group): reduce | Colon 5-HT ([3]; high dose 30 mg/kg ig 20 d): 12.00±2.93^∗∗∗ µg/mg | Serum 5-HT ([3]; high dose 30 mg/kg ig 20 d): 23.82±6.34^∗∗∗ µg/ml | AWR scoring ([3]; high dose 30 mg/kg ig 20 d, 20 mm Hg): 1.39±0.30^∗∗ ∗ | AWR scoring ([3]; high dose 30 mg/kg ig 20 d, 40 mm Hg): 1.92±0.33^∗∗∗ | AWR scoring ([3]; high dose 30 mg/kg ig 20 d, 60 mm Hg): 2.86±0.26^∗∗∗ | Colon 5-HT ([3]; low dose 7.5 mg/kg ig 20 d): 16.24±2.34^∗∗ µg/mg | Serum 5-HT ([3]; low dose 7.5 mg/kg ig 20 d): 31.75±5.33^∗∗ µg/ml | AWR scoring ([3]; low dose 7.5 mg/kg ig 20 d, 20 mm Hg): 2.50±0.38^∗ | AWR scoring ([3]; low dose 7.5 mg/kg ig 20 d, 40 mm Hg): 3.00±0.49^∗∗ | AWR scoring ([3]; low dose 7.5 mg/kg ig 20 d, 60 mm Hg): 3.60±0.22^∗∗ | Colon 5-HT ([3]; middle dose 15 mg/kg ig 20 d): 14.33±2.10^∗∗∗ µg/mg | Serum 5-HT ([3]; middle dose 15 mg/kg ig 20 d): 29.47±4.91^∗∗∗ µg/ml | AWR scoring ([3]; middle dose 15 mg/kg ig 20 d, 20 mm Hg): 2.02±0.57^∗∗ | AWR scoring ([3]; middle dose 15 mg/kg ig 20 d, 40 mm Hg): 2.42±0.41^∗∗∗ | AWR scoring ([3]; middle dose 15 mg/kg ig 20 d, 60 mm Hg): 3.03±0.37^∗∗∗ | 5-HT level in colon and serum, in words ([3]; compared with the model group): significantly decrease | AWR scoring, in words ([3]; compared with the model group): significantly decrease | pain threshold of the mice with inflammatory pain, in words ([4]; compared with the model group): significantly extend | Pain threshold ([4]; high dose 30 mg/kg ig once per day, 0 d): 12.88 ± 2.27 s | Pain threshold ([4]; high dose 30 mg/kg ig once per day, 1 d): 7.99±0.90^∗∗∗ s | Pain threshold ([4]; high dose 30 mg/kg ig once per day, 3 d): 9.88±1.34^∗∗∗ s | Pain threshold ([4]; high dose 30 mg/kg ig once per day, 7 d): 11.26±1.82^∗∗∗ s | Pain threshold ([4]; low dose 7.5 mg/kg ig once per day, 0 d): 12.94 ± 2.41 s | Pain threshold ([4]; low dose 7.5 mg/kg ig once per day, 1 d): 7.55±1.29^∗∗∗ s | Pain threshold ([4]; low dose 7.5 mg/kg ig once per day, 3 d): 9.00±0.73^∗∗∗ s | Pain threshold ([4]; low dose 7.5 mg/kg ig once per day, 7 d): 10.26±1.08^∗∗∗ s | Pain threshold ([4]; middle dose 15 mg/kg ig once per day, 0 d): 12.80 ± 2.27 s | Pain threshold ([4]; middle dose 15 mg/kg ig once per day, 1 d): 7.73±1.10^∗∗∗ s | Pain threshold ([4]; middle dose 15 mg/kg ig once per day, 3 d): 9.47±0.79^∗∗∗ s | Pain threshold ([4]; middle dose 15 mg/kg ig once per day, 7 d): 10.93±1.62^∗∗∗ s | pain thresholds of the thermal-stimulus mice, in words ([5]; compared with the model group): significantly extend | Pain threshold ([5]; high dose 30 mg/kg ig 7 d, 30 min after final administration): 41.43 ± 5.15 s | Pain threshold ([5]; high dose 30 mg/kg ig 7 d, 60 min): 46.16 ± 6.63 s | Pain threshold ([5]; high dose 30 mg/kg ig 7 d, 90 min): 47.22 ± 5.98 s | Pain threshold ([5]; high dose 30 mg/kg ig 7 d, 120 min): 45.49 ± 6.31 s | Pain threshold ([5]; low dose 7.5 mg/kg ig 7 d, 30 min after final administration): 37.92 ± 8.83 s | Pain threshold ([5]; low dose 7.5 mg/kg ig 7 d, 60 min): 44.14 ± 7.56 s | Pain threshold ([5]; low dose 7.5 mg/kg ig 7 d, 90 min): 45.93 ± 8.38 s | Pain threshold ([5]; low dose 7.5 mg/kg ig 7 d, 120 min): 43.80 ± 6.12 s | Pain threshold ([5]; middle dose 15 mg/kg ig 7 d, 30 min after final administration): 40.33 ± 8.25 s | Pain threshold ([5]; middle dose 15 mg/kg ig 7 d, 60 min): 44.87 ± 5.67 s | Pain threshold ([5]; middle dose 15 mg/kg ig 7 d, 90 min): 46.41 ± 5.36 s | Pain threshold ([5]; middle dose 15 mg/kg ig 7 d, 120 min): 43.44 ± 5.91 s
